# Data published in patent EP0199524B1, “Platinum tramine antitumor agents” (ENGELHARD CORPORATION, priority 1985, dated 1986).
# Test system: S180 ascites
# Experiment: Screening for anti-tumor activity against S180 ascites (S180a) in mice
# Assay type: in vivo, female CFW Swiss mice
# Conditions: Dose 10 mg/kg, medium H2O, S180a in mice, survivors/mice in set
# Description: The compounds were evaluated for anti-tumor activity against S180 ascites in female CFW Swiss mice by the following procedure: CFW mice, averaging 20g, are immediately inspected and placed in newly prepared cages. On day zero the mice are inoculated with 0.2 ml. of a freshly prepared saline suspension (0.15 M NaCl) containing 1 x 10⁷ tumor cells/ml, or a total of 2 x 10⁶ cells. This inoculum is freshly prepared using "transfer" mice which have been injected with tumor cells the previous week. This inoculum is the end-product of a series of steps which involves (1) the removal of the cells from the peritoneal cavity of the sacrificed transfer mouse, (2) alternate centrifugation-washing (2-3 times with cold saline) to remove occasional blood and other undesirable components, and finally (3) dilution (1:3) of the packed cell volume with saline (the final centrifugation being carried out at 1,000 rpm for 2 min.). A cell count is made on a 2,000-fold dilution of this 1:3 suspension by means of a Coulter Counter. A final dilution to 1 x 10⁷ cells/ml. is made based on the averaged count. On day 1, solutions of the test compounds are prepared and the mice injected, with each mouse of a set of six being injected with the same test compound at the same dose level.
# ILS values above 50% represent significant activity; those above 75% represent excellent activity.
row,SMILES,30-Day Survivors
1,"[Cl-].[NH3+][Pt-2]([NH3+])([Cl])[n+]1ccc(Cl)cc1 (stereo not drawn) [Example 8, Cis-chlorodiammine-4-chloropyridineplatinum(II) chloride]",0/6
2,"[Cl-].[NH3+][Pt-2]([NH3+])([Cl])[n+]1cccc(O)c1 (stereo not drawn) [Example 4, Cis-chlorodiammine-3-hydroxypyridineplatinum(II) Chloride]",0/6
3,"Cc1cccc(O)[n+]1[Pt-2]([NH3+])([NH3+])[Cl].[Cl-] (stereo not drawn) [Example 3, Cis-Chlorodiammine-6-methyl-2-hydroxypyridineplatinum(II) Chloride]",0/6

# Same assay, conditions: Dose 10 mg/kg, medium H2O, injected day 1, S180a in mice, upper limit 100%
row,SMILES,%ILS
1,"[Cl-].[NH3+][Pt-2]([NH3+])([Cl])[n+]1ccc(Cl)cc1 (stereo not drawn) [Example 8, Cis-chlorodiammine-4-chloropyridineplatinum(II) chloride]",22%
2,"[Cl-].[NH3+][Pt-2]([NH3+])([Cl])[n+]1cccc(O)c1 (stereo not drawn) [Example 4, Cis-chlorodiammine-3-hydroxypyridineplatinum(II) Chloride]",5%
3,"Cc1cccc(O)[n+]1[Pt-2]([NH3+])([NH3+])[Cl].[Cl-] (stereo not drawn) [Example 3, Cis-Chlorodiammine-6-methyl-2-hydroxypyridineplatinum(II) Chloride]",-9%

# Same assay, conditions: Dose 20 mg/kg, medium H2O, S180a in mice, survivors/mice in set
row,SMILES,30-Day Survivors
1,"[Cl-].[NH3+][Pt-2]([NH3+])([Cl])[n+]1ccc(Cl)cc1 (stereo not drawn) [Example 8, Cis-chlorodiammine-4-chloropyridineplatinum(II) chloride]",2/6
2,"[Cl-].[NH3+][Pt-2]([NH3+])([Cl])[n+]1cccc(O)c1 (stereo not drawn) [Example 4, Cis-chlorodiammine-3-hydroxypyridineplatinum(II) Chloride]",0/6
3,"Cc1cccc(O)[n+]1[Pt-2]([NH3+])([NH3+])[Cl].[Cl-] (stereo not drawn) [Example 3, Cis-Chlorodiammine-6-methyl-2-hydroxypyridineplatinum(II) Chloride]",0/6

# Same assay, conditions: Dose 20 mg/kg, medium H2O, injected day 1, S180a in mice, upper limit 100%
row,SMILES,%ILS
1,"[Cl-].[NH3+][Pt-2]([NH3+])([Cl])[n+]1ccc(Cl)cc1 (stereo not drawn) [Example 8, Cis-chlorodiammine-4-chloropyridineplatinum(II) chloride]",68%
2,"[Cl-].[NH3+][Pt-2]([NH3+])([Cl])[n+]1cccc(O)c1 (stereo not drawn) [Example 4, Cis-chlorodiammine-3-hydroxypyridineplatinum(II) Chloride]",10%
3,"Cc1cccc(O)[n+]1[Pt-2]([NH3+])([NH3+])[Cl].[Cl-] (stereo not drawn) [Example 3, Cis-Chlorodiammine-6-methyl-2-hydroxypyridineplatinum(II) Chloride]",-6%

# Same assay, conditions: Dose 40 mg/kg, medium H2O, S180a in mice, survivors/mice in set
row,SMILES,30-Day Survivors
1,"[Cl-].[NH3+][Pt-2]([NH3+])([Cl])[n+]1ccc(Cl)cc1 (stereo not drawn) [Example 8, Cis-chlorodiammine-4-chloropyridineplatinum(II) chloride]",4/6
2,"[Cl-].[NH3+][Pt-2]([NH3+])([Cl])[n+]1cccc(O)c1 (stereo not drawn) [Example 4, Cis-chlorodiammine-3-hydroxypyridineplatinum(II) Chloride]",0/6
3,"Cc1cccc(O)[n+]1[Pt-2]([NH3+])([NH3+])[Cl].[Cl-] (stereo not drawn) [Example 3, Cis-Chlorodiammine-6-methyl-2-hydroxypyridineplatinum(II) Chloride]",0/6

# Same assay, conditions: Dose 40 mg/kg, medium H2O, injected day 1, S180a in mice, upper limit 100%
row,SMILES,%ILS
1,"[Cl-].[NH3+][Pt-2]([NH3+])([Cl])[n+]1ccc(Cl)cc1 (stereo not drawn) [Example 8, Cis-chlorodiammine-4-chloropyridineplatinum(II) chloride]",77%
2,"[Cl-].[NH3+][Pt-2]([NH3+])([Cl])[n+]1cccc(O)c1 (stereo not drawn) [Example 4, Cis-chlorodiammine-3-hydroxypyridineplatinum(II) Chloride]",54%
3,"Cc1cccc(O)[n+]1[Pt-2]([NH3+])([NH3+])[Cl].[Cl-] (stereo not drawn) [Example 3, Cis-Chlorodiammine-6-methyl-2-hydroxypyridineplatinum(II) Chloride]",12%

# Same assay, conditions: Dose 80 mg/kg, medium H2O, S180a in mice, survivors/mice in set
row,SMILES,30-Day Survivors
1,"[Cl-].[NH3+][Pt-2]([NH3+])([Cl])[n+]1ccc(Cl)cc1 (stereo not drawn) [Example 8, Cis-chlorodiammine-4-chloropyridineplatinum(II) chloride]",4/6
2,"[Cl-].[NH3+][Pt-2]([NH3+])([Cl])[n+]1cccc(O)c1 (stereo not drawn) [Example 4, Cis-chlorodiammine-3-hydroxypyridineplatinum(II) Chloride]",1/6
3,"Cc1cccc(O)[n+]1[Pt-2]([NH3+])([NH3+])[Cl].[Cl-] (stereo not drawn) [Example 3, Cis-Chlorodiammine-6-methyl-2-hydroxypyridineplatinum(II) Chloride]",0/6

# Same assay, conditions: Dose 80 mg/kg, medium H2O, injected day 1, S180a in mice, upper limit 100%
row,SMILES,%ILS
1,"[Cl-].[NH3+][Pt-2]([NH3+])([Cl])[n+]1ccc(Cl)cc1 (stereo not drawn) [Example 8, Cis-chlorodiammine-4-chloropyridineplatinum(II) chloride]",36%
2,"[Cl-].[NH3+][Pt-2]([NH3+])([Cl])[n+]1cccc(O)c1 (stereo not drawn) [Example 4, Cis-chlorodiammine-3-hydroxypyridineplatinum(II) Chloride]",69%
3,"Cc1cccc(O)[n+]1[Pt-2]([NH3+])([NH3+])[Cl].[Cl-] (stereo not drawn) [Example 3, Cis-Chlorodiammine-6-methyl-2-hydroxypyridineplatinum(II) Chloride]",15%

# Same assay, conditions: Dose 160 mg/kg, medium H2O, S180a in mice, survivors/mice in set
row,SMILES,30-Day Survivors
1,"[Cl-].[NH3+][Pt-2]([NH3+])([Cl])[n+]1ccc(Cl)cc1 (stereo not drawn) [Example 8, Cis-chlorodiammine-4-chloropyridineplatinum(II) chloride]",0/6
2,"[Cl-].[NH3+][Pt-2]([NH3+])([Cl])[n+]1cccc(O)c1 (stereo not drawn) [Example 4, Cis-chlorodiammine-3-hydroxypyridineplatinum(II) Chloride]",1/6
3,"Cc1cccc(O)[n+]1[Pt-2]([NH3+])([NH3+])[Cl].[Cl-] (stereo not drawn) [Example 3, Cis-Chlorodiammine-6-methyl-2-hydroxypyridineplatinum(II) Chloride]",5/6

# Same assay, conditions: Dose 160 mg/kg, medium H2O, injected day 1, S180a in mice, upper limit 100%
row,SMILES,%ILS
1,"[Cl-].[NH3+][Pt-2]([NH3+])([Cl])[n+]1ccc(Cl)cc1 (stereo not drawn) [Example 8, Cis-chlorodiammine-4-chloropyridineplatinum(II) chloride]",-77%
2,"[Cl-].[NH3+][Pt-2]([NH3+])([Cl])[n+]1cccc(O)c1 (stereo not drawn) [Example 4, Cis-chlorodiammine-3-hydroxypyridineplatinum(II) Chloride]",-8%
3,"Cc1cccc(O)[n+]1[Pt-2]([NH3+])([NH3+])[Cl].[Cl-] (stereo not drawn) [Example 3, Cis-Chlorodiammine-6-methyl-2-hydroxypyridineplatinum(II) Chloride]",93%

# Same assay, conditions: Dose 320 mg/kg, medium H2O, S180a in mice, survivors/mice in set
row,SMILES,30-Day Survivors
1,"[Cl-].[NH3+][Pt-2]([NH3+])([Cl])[n+]1ccc(Cl)cc1 (stereo not drawn) [Example 8, Cis-chlorodiammine-4-chloropyridineplatinum(II) chloride]",0/6
2,"[Cl-].[NH3+][Pt-2]([NH3+])([Cl])[n+]1cccc(O)c1 (stereo not drawn) [Example 4, Cis-chlorodiammine-3-hydroxypyridineplatinum(II) Chloride]",0/6
3,"Cc1cccc(O)[n+]1[Pt-2]([NH3+])([NH3+])[Cl].[Cl-] (stereo not drawn) [Example 3, Cis-Chlorodiammine-6-methyl-2-hydroxypyridineplatinum(II) Chloride]",3/6

# Same assay, conditions: Dose 320 mg/kg, medium H2O, injected day 1, S180a in mice, upper limit 100%
row,SMILES,%ILS
1,"[Cl-].[NH3+][Pt-2]([NH3+])([Cl])[n+]1ccc(Cl)cc1 (stereo not drawn) [Example 8, Cis-chlorodiammine-4-chloropyridineplatinum(II) chloride]",-94%
2,"[Cl-].[NH3+][Pt-2]([NH3+])([Cl])[n+]1cccc(O)c1 (stereo not drawn) [Example 4, Cis-chlorodiammine-3-hydroxypyridineplatinum(II) Chloride]",-75%
3,"Cc1cccc(O)[n+]1[Pt-2]([NH3+])([NH3+])[Cl].[Cl-] (stereo not drawn) [Example 3, Cis-Chlorodiammine-6-methyl-2-hydroxypyridineplatinum(II) Chloride]",93%
